Measurements published in patent publication US10995357B2, “Rapid antimicrobial susceptibility testing based on a unique spectral intensity ratio analysis via single fluorescence membrane dye staining and flow cytometry” (POCARED Diagnostics LTD., priority 2017, dated 2021).
Read-outs that look alike come from different tables or passages of the source.

Key:
Assay type in all cases: cell-based
E. coli [1] = experiment: Rapid AST/MIC by spectral intensity ratio (SIR), FM 1-43 staining and flow cytometry, directly from positive blood culture; settings: E. coli strain from positive blood culture; scatter plot unchanged at high antibiotic concentrations
Protocol: (§1) In general, the method includes; blood culture centrifugation, bacterial antimicrobial exposure for 2 to 4 hours, bacteria staining with a single fluorescence dye followed by a flow cytometric measurement, and mathematical analysis.
(§2) 31 positive blood cultures were obtained from Sheba Medical Center (Ramat-Gan, Israel) and tested for antimicrobial susceptibility with gentamicin and ampicillin antibiotics (Sigma-Aldrich, USA). A total of 62 positive blood samples-antibiotics combinations were tested. • a) Positive blood samples were received from Sheba Medical Center, 2 ml of each sample were centrifuged for 15 min at 24×g and Supernatants were diluted 1:1000 with Cation-Adjusted Mueller Hinton Broth (CAMHB). • b) Antimicrobial stock solutions were prepared according to CLSI recommendations, and were diluted in CAMHB, to a concentration which was 2 fold higher from the highest concentration recommended for each antimicrobial combination (“Class II Special Controls Guidance Document: Antimicrobial Susceptibility Test (AST) Systems”, Aug. […] As a positive control, a tube with bacterial sample solution (a) without antimicrobial agent. • h) All tubes were incubated at 37° C. • i) 2-4 hours from incubation initiation, 200 μl from each tube were transferred into a fresh tube, dyed with 2 μl of Synaptogreen or FM 1-43 (Sigma-Aldrich; Molecular Probes, respectively) and measured by a flow cytometer. The rest of the sample was further incubated for 16-20 hours and then was visually evaluated for growth.
(§3) In order to quantify the influence of a certain antimicrobial exposure we define the spectral intensity ratio (SIR) as follows: […]
(§4) The MIC is calculated by plotting the spectral intensity ratio (SIR) as a function of the antimicrobial concentration and approximating it to a step function in the form of […]

K. pneumonia = experiment: as above; settings: 2-4 hours antibiotic exposure, SIR step function fit
Protocol: as §1, §2, §3, §4

[2] = system: 31 positive blood cultures (E. coli, K. pneumonia, A. baummanii, P. mirabilis, E. cloacae, Aeromonass spp., K. oxytoca); experiment: Reference macro dilution method, visual growth after 16-20 hours, positive blood cultures; settings: for Reference Method Susceptibilities I: number of strains intermediate out of 31 positive blood cultures; for Reference Method Susceptibilities R: number of strains resistant out of 31 positive blood cultures; for Reference Method Susceptibilities S: number of strains susceptible out of 31 positive blood cultures
Protocol: 31 positive blood cultures were obtained from Sheba Medical Center (Ramat-Gan, Israel) and tested for antimicrobial susceptibility with gentamicin and ampicillin antibiotics (Sigma-Aldrich, USA). A total of 62 positive blood samples-antibiotics combinations were tested. • a) Positive blood samples were received from Sheba Medical Center, 2 ml of each sample were centrifuged for 15 min at 24×g and Supernatants were diluted 1:1000 with Cation-Adjusted Mueller Hinton Broth (CAMHB). • b) Antimicrobial stock solutions were prepared according to CLSI recommendations, and were diluted in CAMHB, to a concentration which was 2 fold higher from the highest concentration recommended for each antimicrobial combination (“Class II Special Controls Guidance Document: Antimicrobial Susceptibility Test (AST) Systems”, Aug. 28, 2009, FDA). • c) For each sample/antimicrobial combination, a set of tubes was prepared for which 1 ml of CAMHB medium was added, except for the first tube. • d) To each first tube of the set, 2 ml from the antimicrobial stock solution (b) was dispensed. • e) From the first tube a serial dilutions of 2 folds were prepared by transferring 1 ml of the solution to the next tube until the lowest required concentration by CLSI. 1 ml was discarded from the last tube in each set of tubes. • f) To each tube in the set, 1 ml of bacterial sample solution (a) was added. • g) For each serial dilutions set, two controls were added. As a negative control, a tube with 2 ml of CAMHB. As a positive control, a tube with bacterial sample solution (a) without antimicrobial agent. • h) All tubes were incubated at 37° C. • i) 2-4 hours from incubation initiation, 200 μl from each tube were transferred into a fresh tube, dyed with 2 μl of Synaptogreen or FM 1-43 (Sigma-Aldrich; Molecular Probes, respectively) and measured by a flow cytometer. The rest of the sample was further incubated for 16-20 hours and then was visually evaluated for growth.
62 samples (31 positive blood cultures and 2 antibiotics combination) were analyzed in triplicates. Each sample was measured by the flow cytometer and the MIC was calculated using the spectral intensity ratio (SIR) calculation and step function estimation. The bacteria identified within the samples were; E. coli (15 samples), K. pneumonia (6 samples), A. baummanii (4 samples), P. mirabilis (2 samples), E. cloacae (2 samples), Aeromonass spp. (1 sample), and K. oxytoca (1 sample).
Tables 1 and 2 present the results of the positive blood sample experiment using the macro dilution as the reference method. […] There are no errors as defined by “Class II Special Controls Guidance Document: Antimicrobial Susceptibility Test (AST) Systems,” Aug. 28, 2009, FDA.

[3] = system: 30 clinical isolates of E. coli, K. pneumoniae, E. cloacae, P. mirabilis, and C. freundii; experiment: Reference macro dilution method, visual growth after 16-20 hours, clinical isolates; settings: for Reference Method Susceptibilities I: number of strains intermediate out of 30 clinical isolates; for Reference Method Susceptibilities R: number of strains resistant out of 30 clinical isolates; for Reference Method Susceptibilities S: number of strains susceptible out of 30 clinical isolates
Protocol: A total of 90 isolates-antibiotics combinations were tested. • a) All strains were cultured onto 5% sheep blood agar (Hylabs, Israel), following overnight incubation, colonies were harvested and suspended in Phosphate Buffer Saline (PBS, Sigma-Aldrich). […] 1 ml was discarded from the last tube in each set of tubes. • g) For each serial dilutions set, two controls were added. As a negative control, a tube with 2 ml of CAMHB. […] The rest of the sample was further incubated for 16-20 hours and then was visually evaluated for growth.

E. coli [4] = experiment: Rapid AST/MIC by spectral intensity ratio (SIR), FM 1-43 staining and flow cytometry, from clinical isolates; settings: E. coli clinical isolate; 2-4 hours antibiotic exposure; SIR step function fit
Protocol: (§5) Our method includes bacterial antimicrobial treatment for 2 to 4 hours, bacteria staining with a single fluorescence dye followed by a flow cytometric measurement, and mathematical analysis. The following paragraphs describe the method in details.
(§6) A total of 90 isolates-antibiotics combinations were tested. • a) All strains were cultured onto 5% sheep blood agar (Hylabs, Israel), following overnight incubation, colonies were harvested and suspended in Phosphate Buffer Saline (PBS, Sigma-Aldrich). […] The rest of the sample was further incubated for 16-20 hours and then was visually evaluated for growth.
(§7) In order to quantify the influence of a certain antimicrobial treatment, we define the spectral intensity ratio (SIR) as follows: […]
(§8) The MIC is calculated by plotting the spectral intensity ratio (SIR) as a function of the antimicrobial concentration and approximating it to a step function in the form of
(§9) Where a, b, and c are parameters and erf is the error function. The parameters are used to approximate the measured SIR to a step function; a is a scaling parameter, b determines the step slope, and c is the MIC value. […]

C. freundii = experiment: as above; settings: C. freundii clinical isolate; up to 32 μg/ml; SIR almost constant
Protocol: as §5, §6, §7, §8, §9

CC1(C)S[C@@H]2[C@H](NC(=O)[C@H](N)c3ccccc3)C(=O)N2[C@H]1C(=O)O [Ampicillin, ampicillin]
Susceptibility (SIR as a function of antibiotic concentration) (E. coli [1]): resistant | MIC (K. pneumonia; Klebsiella pneumoniae, read-out: MIC): 4 µg/mL | Reference Method Susceptibilities I [2]: 0 | Reference Method Susceptibilities R [2]: 26 | Reference Method Susceptibilities S [2]: 5 | Reference Method Susceptibilities I [3]: 5 | Reference Method Susceptibilities R [3]: 9 | Reference Method Susceptibilities S [3]: 16

gentamicin
MIC (K. pneumonia): 1 µg/mL | Reference Method Susceptibilities I [2]: 0 | Reference Method Susceptibilities R [2]: 10 | Reference Method Susceptibilities S [2]: 21 | MIC (E. coli [4]): 2 µg/mL | Susceptibility (SIR as a function of antibiotic concentration) (C. freundii): resistant | Reference Method Susceptibilities I [3]: 4 | Reference Method Susceptibilities R [3]: 5 | Reference Method Susceptibilities S [3]: 21
